The values below are quoted from earlier work in patent US7183291B2 (Council of Scientific and Industrial Research, priority 1999, dated 2007).

For data set [1], the system named is P. cynomolgi B. infection. Conditions: 3.16 mg/kg×3 doses; monkeys; cited from earlier work.
For data set [2], the system named is P. cynomolgi B. infection. To be noted: 1 mg/kg×7 days; cited from earlier work.
The test system of a further data set is erythrocytes. To be noted: cited from earlier work.
Data set [3] concerns rodent malaria. To be noted: in vivo; cited from earlier work.
Data set [4] deals with rodent malaria. Conditions: in vivo; cited from earlier work. The source holds these as a separate data set.
The test system of data set [5] is rodent malaria. To be noted: given directly to the insect; cited from earlier work.
Data set [6] has as its system rodent malaria. Conditions: in vivo; cited from earlier work. This is another data set of the same source.

Turning to `COc1cc(NC(C)CCCNC2=C(C(C)=O)CCO2)c2ncccc2c1` (stereo not drawn) [N^1-(3-acetyl-4,5-dihydro-2-furanyl)-N^4-(6-methoxy-8-quinolinyl)-1,4-pentanediamine], in data set [1], the causal prophylactic activity entry is reported as “causal prophylactic activity”. The “anti-relapse (radical curative) activity” value in data set [2] is reported as “exerts anti-relapse (radical curative) activity”.

Consider `COc1cc(NC(C)CCCN)c2ncccc2c1O` (stereo not drawn) [formula (3), 5-hydroxy-6-methoxy-8-(4-amino-1-methylbutylamino) quinoline], for which the “oxidation of oxyhemoglobin (HbO2) to methemoglobin (Met Hb) and of reduced glutathione (GSH)” value in the data set on erythrocytes is listed as “cause oxidation”. In addition, the gametocytocidal activity result with rodent malaria [3] was “inactive”. Further, the blood schizontocidal activity entry in the data set on rodent malaria [4] is “highly active”.

Take `COC1(O)C=C(NC(C)CCCN)c2ncccc2C1O` (stereo not drawn) [formula (4), 5,6-dihydroxy-6-methoxy-8-(4-amino-1-methylbutylamino) quinoline]: in the data set on rodent malaria [3], the gametocytocidal activity entry is listed as “only a slight gametocytocidal activity”. The blood schizontocidal activity result in the data set on rodent malaria [4] was “highly active”.

In the case of `COc1cc(N)c2ncccc2c1` [formula (10), 6-methoxy-8-aminoquinoline], in the data set on rodent malaria [4], the blood schizontocidal activity result is recorded as “no significant activity”. In the data set on rodent malaria [5], the direct sporontocidal activity result was “directly sporontocidal”. For the same molecule, the “tissue schizontoidal effect relative to primaquine” value with rodent malaria [6] was “two to three times more active than primaquine”.

On to `Nc1cc(O)c(O)c2cccnc12` [formula (11), 5,6-dihydroxy-8-aminoquinoline], for which the “oxidation of oxyhemoglobin (HbO2) to methemoglobin (Met Hb) and of reduced glutathione (GSH)” value in the data set with erythrocytes was “cause oxidation”. Moreover, in the data set on rodent malaria [4], the blood schizontocidal activity entry is “no significant activity”. The direct sporontocidal activity result with rodent malaria [5] is reported as “directly sporontocidal”. In addition, the “tissue schizontoidal effect relative to primaquine” value with rodent malaria [6] is given as “two to three times more active than primaquine”.

Take `COc1cc(NC(C)CCC(=O)O)c2ncccc2c1` (stereo not drawn) [formula (12), 8-(3-carboxy-1-methylpropylamino)-6-methoxy quinoline]: the “methemoglobin formation in vitro” value in the data set with erythrocytes (in vitro) is listed as “does not cause methemoglobin formation”. In the data set on rodent malaria [3], the gametocytocidal activity result is “inactive”.

Regarding Desmethyl primaquine [formula (5)], the gametocytocidal activity entry with rodent malaria [3] was “inactive”. Further, the blood schizontocidal activity entry in the data set with rodent malaria [4] is recorded as “little”.
